Laboratory results from patent publication US20250346592A1 (Celgene Corporation, priority 2022, published 2025).

Legend:
hPAD4 enzyme [1] = molecular target: T1, hPAD4 enzyme (Homo sapiens (Human), UniProt Q9UM07); test: RFMS2 assay (RapidFire mass spectrometry, TSTGGRQGSHH peptide substrate); assay type: biochemical; conditions: 35 nM recombinant human PAD4, 500 μM TSTGGRQGSHH peptide, 30 minutes at room temperature; read-out: RFMS 2 IC50
Procedure, shortened: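 Recombinant human PAD4 (35 nM) with 500 μM TSTGGRQGSHH peptide in HEPES pH 7.4, 200 mM NaCl, 2 mM CaCl2, 5 mM DTT, 1.2% DMSO, 30 min at room temperature; 3-fold compound series, top 20 μM. Quenched with formic acid; substrate and citrullinated product quantified by RapidFire MRM mass spectrometry for IC50.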

hPAD4 enzyme [2] = molecular target: T1, hPAD4 enzyme; test: RFMS1 assay (RapidFire mass spectrometry, BAEE substrate); assay type: biochemical; conditions: 5 nM hPAD4, 250 μM BAEE, 30 min preincubation at 37° C., 90 min reaction; read-out: RFMS 1 IC50
Experimental: Compounds were solubilized in 100% DMSO to achieve a 10 mM compound concentration. Compound stock solutions were stored at RT. A series of dilutions were prepared in DMSO and mixed 8 times with 20 μL mixing volume. Final top concentration of compound in the assay is 50 μM. Final assay conditions were as follows: • Reaction volume: 26 μl • Assay buffer: 25 mM hepes, pH 7.5, 5 mM NaCl, 1 mM DTT, 0.2 mg/ml BSA, 0.01% CHAPS, 50 µM Calcium, and 5 μM TPEN • Final concentrations: 5 nM hPAD4 enzyme, 250 µM BAEE, and 0.5% DMSO • Total incubation time: 30 mins compound and enzyme preincubation at 37° C., 90 min enzyme/substrate reaction, 30 min reaction with phenyl glyoxal at 37° C. • Stop solution: 40 μl 5% TCA in ACN • 0.13 μL of compound solution was added to 13 μL of 10 nM PAD4 in assay buffer. After […] min 13 μl of 500 µM of BAEE was added in 25 mM hepes, pH 7.5, 5 mM NaCl, 1 mM DTT, 0.2 mg/ml BSA, 0.01% CHAPS, 50 μM Calcium, 5 μM TPEN was added and the reaction incubated for 90 min at 37° C. The enzymatic reaction was quenched by addition of 15 μl of 6.1N TCA, 100% Final Concentration is 20%, 35 μl of 8.5 mM phenyl glyoxal (final concentration 4 mM) is then added and the reaction is incubated for 30 min at 37° C.
After 30 minutes the plates are spun down to remove all precipitate. The enzyme reaction was quenched with an equal volume of methanol containing internal standard (modified citrulline). Samples were loaded onto the Rapid Fire RF300 system (Agilent) wherein they were first sipped for 1000 ms and then directly loaded to a C18 separations cartridge using a mixture of acetonitrile containing 0.01% formic acid for 3000 ms desalting. The flow rate of the mobile phase was 1.5 ml/min. Once the samples were eluted from the cartridge, a mobile phase of acetonitrile containing 0.01% formic acid was used to move the samples into the mass spectrometer for 4000 ms at a flow rate of 1.25 ml/min/Sciex API5500 triple quadrupole mass spectrometer (Applied Biosystems) equipped with ESI was used to analyze the peptidyl citrulline and internal standard ions.
MRM transition of product and internal standard were monitored at m/z 424.5 to 350.4 and m/z 293 to 247 respectively. The dwell time for each transition was set at 200 ms, and the ESI voltage was used at 5500 with a source temperature of 400° C. Extracted ion peaks for each transition were integrated using the Rapid Fire Integrator software. Peak area of analyte was normalized with internal standard.).
Compounds having an activity designated as “A” provided an IC50≤10 nM; compounds having an activity designated as “B” provided an IC50 11-100 nM; compounds having an activity designated as “C” provided an IC50 101-500 nM; compounds having an activity designated as “D” provided an IC50 501-1000 nM; compounds having an activity designated as “E” provided an IC50>1000 nM.

T1 sequence (Q9UM07 whole entry): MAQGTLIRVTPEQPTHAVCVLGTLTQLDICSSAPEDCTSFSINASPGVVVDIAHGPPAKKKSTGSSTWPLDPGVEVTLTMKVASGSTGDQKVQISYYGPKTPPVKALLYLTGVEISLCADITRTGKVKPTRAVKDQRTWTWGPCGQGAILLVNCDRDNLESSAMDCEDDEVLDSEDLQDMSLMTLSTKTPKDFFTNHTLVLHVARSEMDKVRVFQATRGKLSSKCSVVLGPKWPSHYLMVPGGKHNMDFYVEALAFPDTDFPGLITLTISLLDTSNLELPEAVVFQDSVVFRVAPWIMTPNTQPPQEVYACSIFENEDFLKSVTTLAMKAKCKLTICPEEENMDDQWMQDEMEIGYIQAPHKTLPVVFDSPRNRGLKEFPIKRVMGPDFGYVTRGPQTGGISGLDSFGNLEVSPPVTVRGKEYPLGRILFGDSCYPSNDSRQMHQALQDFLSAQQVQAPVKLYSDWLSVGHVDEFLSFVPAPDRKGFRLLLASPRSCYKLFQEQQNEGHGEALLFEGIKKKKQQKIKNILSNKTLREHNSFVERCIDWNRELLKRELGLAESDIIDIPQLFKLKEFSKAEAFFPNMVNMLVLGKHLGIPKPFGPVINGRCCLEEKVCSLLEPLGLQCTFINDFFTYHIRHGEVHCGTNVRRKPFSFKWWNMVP

Structure (SMILES)	IC50 (hPAD4 enzyme [1])	IC50 (hPAD4 enzyme [2])
COc1cccc2cc(-c3nc4cc5c(cc4n3C)CCN(C[C@H](N)[C@H](C)F)C5=O)n(CC3CC3)c12 [Example 15a, 6-((2S,3S)-2-amino-3-fluorobutyl)-2-(1-(cyclopropylmethyl)-7-methoxy-1H-indol-2-yl)-1-methyl-1,6,7,8-tetrahydro-5H-imidazo[4,5-g]isoquinolin-5-one]	101 to 500 nM	101 to 500 nM
Cc1cc(C(N)=O)c(F)cc1-c1ccc2cc(-c3nc4cc5c(cc4n3C)CCN(C[C@H](N)CF)C5=O)n(CC3CC3)c2n1 [Example 60, (S)-4-(2-(6-(2-amino-3-fluoropropyl)-1-methyl-5-oxo-5,6,7,8-tetrahydro-1H-imidazo[4,5-g]isoquinolin-2-yl)-1-(cyclopropylmethyl)-1H-pyrrolo[2,3-b]pyridin-6-yl)-2-fluoro-5-methylbenzamide]	101 to 500 nM	11 to 100 nM
COc1cc(F)cc2cc(-c3nc4cc5c(cc4n3C)CCN(C[C@H](N)CF)C5=O)n(CC3CC3)c12 [Example 65, (S)-6-(2-amino-3-fluoropropyl)-2-(1-(cyclopropylmethyl)-5-fluoro-7-methoxy-1H-indol-2-yl)-1-methyl-1,6,7,8-tetrahydro-5H-imidazo[4,5-g]isoquinolin-5-one]	101 to 500 nM	11 to 100 nM
COC1CCN(c2ccc3cc(-c4nc5cc6c(cc5n4C)CCN(C[C@H](N)CF)C6=O)n(CC4CC4)c3c2)CC1 [Example 68, (S)-6-(2-amino-3-fluoropropyl)-2-(1-(cyclopropylmethyl)-6-(4-methoxypiperidin-1-yl)-1H-indol-2-yl)-1-methyl-1,6,7,8-tetrahydro-5H-imidazo[4,5-g]isoquinolin-5-one]	> 1000 nM	11 to 100 nM
COCCn1c(-c2nc3cc4c(cc3n2C)CCN(C[C@H](N)CF)C4=O)cc2cccc(OC)c21 [Example 102, (S)-6-(2-amino-3-fluoropropyl)-2-(7-methoxy-1-(2-methoxyethyl)-1H-indol-2-yl)-1-methyl-1,6,7,8-tetrahydro-5H-imidazo[4,5-g]isoquinolin-5-one]	101 to 500 nM	101 to 500 nM
COc1cccc2cc(-c3nc4cc5c(cc4n3C)CCN(C[C@H](N)CF)C5=O)n(Cc3cc(C)no3)c12 [Example 113, (S)-6-(2-amino-3-fluoropropyl)-2-(7-methoxy-1-((3-methylisoxazol-5-yl)methyl)-1H-indol-2-yl)-1-methyl-1,6,7,8-tetrahydro-5H-imidazo[4,5-g]isoquinolin-5-one]	101 to 500 nM	11 to 100 nM
COc1cccc2cc(-c3nc4cc5c(cc4n3C)CCN(C[C@H](N)CF)C5=O)n(Cc3ncco3)c12 [Example 119, (S)-6-(2-amino-3-fluoropropyl)-2-(7-methoxy-1-(oxazol-2-ylmethyl)-1H-indol-2-yl)-1-methyl-1,6,7,8-tetrahydro-5H-imidazo[4,5-g]isoquinolin-5-one]	101 to 500 nM	11 to 100 nM
COc1cccc2cc(-c3nc4cc5c(cc4n3C)CCN(C[C@H](N)CF)C5=O)n(Cc3nc(C)co3)c12 [Example 124, (S)-6-(2-amino-3-fluoropropyl)-2-(7-methoxy-1-((4-methyloxazol-2-yl)methyl)-1H-indol-2-yl)-1-methyl-1,6,7,8-tetrahydro-5H-imidazo[4,5-g]isoquinolin-5-one]	101 to 500 nM	11 to 100 nM
COc1cccc2cc(-c3nc4cc5c(cc4n3C)CCN(C[C@H](N)CF)C5=O)n(Cc3nccs3)c12 [Example 127, (S)-6-(2-amino-3-fluoropropyl)-2-(7-methoxy-1-(thiazol-2-ylmethyl)-1H-indol-2-yl)-1-methyl-1,6,7,8-tetrahydro-5H-imidazo[4,5-g]isoquinolin-5-one]	101 to 500 nM	101 to 500 nM
COc1cccc2cc(-c3nc4cc5c(cc4n3C)CCN(C[C@H](N)CF)C5=O)n(Cc3cc(N)no3)c12 [Example 146, (S)-6-(2-amino-3-fluoropropyl)-2-(1-((3-aminoisoxazol-5-yl)methyl)-7-methoxy-1H-indol-2-yl)-1-methyl-1,6,7,8-tetrahydro-5H-imidazo[4,5-g]isoquinolin-5-one]	101 to 500 nM	11 to 100 nM

Results, then the compound that gave them:

IC50 (hPAD4 enzyme [1])	IC50 (hPAD4 enzyme [2])	Structure (SMILES)
> 1000 nM	501 to 1000 nM	Cn1c(-c2cc3ccccc3n2CC2CC2)nc2cc3c(cc21)CCN(C[C@H](N)C(F)F)C3=O [Example 14, (S)-6-(2-amino-3,3-difluoropropyl)-2-(1-(cyclopropylmethyl)-1H-indol-2-yl)-1-methyl-1,6,7,8-tetrahydro-5H-imidazo[4,5-g]isoquinolin-5-one]
501 to 1000 nM	101 to 500 nM	COc1cccc2cc(-c3nc4cc5c(cc4n3C)CCN(C[C@H](N)C(C)F)C5=O)n(CC3CC3)c12 (stereo partly drawn) [Example 15b, 6-((2S,3R)-2-amino-3-fluorobutyl)-2-(1-(cyclopropylmethyl)-7-methoxy-1H-indol-2-yl)-1-methyl-1,6,7,8-tetrahydro-5H-imidazo[4,5-g]isoquinolin-5-one]
11 to 100 nM	11 to 100 nM	COc1cccc2cc(-c3nc4cc5c(cc4n3C)CCN(C[C@@H](C)N)C5=O)n(CC3CC3)c12 [Example 35, (R)-6-(2-aminopropyl)-2-(1-(cyclopropylmethyl)-7-methoxy-1H-indol-2-yl)-1-methyl-1,6,7,8-tetrahydro-5H-imidazo[4,5-g]isoquinolin-5-one]
101 to 500 nM	101 to 500 nM	Cc1cccc2cc(-c3nc4cc5c(cc4n3C)CCN(C[C@H](N)CF)C5=O)n(CC3CC3)c12 [Example 48, (S)-6-(2-amino-3-fluoropropyl)-2-(1-(cyclopropylmethyl)-7-methyl-1H-indol-2-yl)-1-methyl-1,6,7,8-tetrahydro-5H-imidazo[4,5-g]isoquinolin-5-one]
101 to 500 nM	11 to 100 nM	COc1cccc2cc(-c3nc4cc5c(cc4n3C)CCN(C[C@H](N)CF)C5=O)n(CC3CC3)c12 [Example 53, (S)-6-(2-amino-3-fluoropropyl)-2-(1-(cyclopropylmethyl)-7-methoxy-1H-indol-2-yl)-1-methyl-1,6,7,8-tetrahydro-5H-imidazo[4,5-g]isoquinolin-5-one]
101 to 500 nM	≤ 10 nM	Cn1c(-c2cc3cccc(OCCn4cncn4)c3n2CC2CC2)nc2cc3c(cc21)CCN(C[C@H](N)CF)C3=O [Example 150, (S)-2-(7-(2-(1H-1,2,4-triazol-1-yl)ethoxy)-1-(cyclopropylmethyl)-1H-indol-2-yl)-6-(2-amino-3-fluoropropyl)-1-methyl-1,6,7,8-tetrahydro-5H-imidazo[4,5-g]isoquinolin-5-one]
101 to 500 nM	11 to 100 nM	Cc1nccn1CCOc1cccc2cc(-c3nc4cc5c(cc4n3C)CCN(C[C@H](N)CF)C5=O)n(CC3CC3)c12 [Example 165, (S)-6-(2-amino-3-fluoropropyl)-2-(1-(cyclopropyl-methyl)-7-(2-(2-methyl-1H-imidazol-1-yl)ethoxy)-1H-indol-2-yl)-1-methyl-1,6,7,8-tetrahydro-5H-imidazo [4,5-g]isoquinolin-5-one]
101 to 500 nM	11 to 100 nM	Cn1cncc1CCOc1cccc2cc(-c3nc4cc5c(cc4n3C)CCN(C[C@H](N)CF)C5=O)n(CC3CC3)c12 [Example 169, (S)-6-(2-amino-3-fluoropropyl)-2-(1-(cyclopropyl-methyl)-7-(2-(1-methyl-1H-imidazol-5-yl)ethoxy)-1H-indol-2-yl)-1-methyl-1,6,7,8-tetrahydro-5H-imidazo [4,5-g]isoquinolin-5-one]
